Data on 10 compounds can be found in PubChem BioAssay (NCI).

Molecules are shown by their SMILES.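 Cells were grown in 96-well plates and exposed to each compound for 48 hours at five concentrations; endpoints were interpolated linearly between bracketing concentrations, or set to the highest concentration if not reached. TGI marks complete inhibition of growth.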

Among the test systems are HOP-62 NSCLC; HOP-92 NSCLC; IGROV1 ovarian; K-562 leukemia; KM12 colon; NCI/ADR-RES ovarian; OVCAR-4 ovarian; RXF 393 renal; SK-MEL-28 melanoma; SNB-19 CNS; U251 CNS; UACC-257 melanoma; UACC-62 melanoma; M14 melanoma; TK-10 renal.
What all share (assay): NCI tumour cell line growth inhibition, 48 h

Turning to `O=C(CCN1CCOCC1)C(=Cc1ccccc1)C(=O)CCN1CCOCC1`, the TGI worked out at 37.5 µM in the experiment with HOP-62 NSCLC; 4.06 µM with HOP-92 NSCLC; 20.3 µM in the experiment on IGROV1 ovarian; 2.15 µM with K-562 leukemia; 13 µM with KM12 colon; 13.9 µM with NCI/ADR-RES ovarian. Also, the TGI turned out to be 19.9 µM in the experiment on OVCAR-4 ovarian; 3.14 µM in the experiment with RXF 393 renal; 5.64 µM in the experiment with SK-MEL-28 melanoma; 28.3 µM in the experiment with SNB-19 CNS; 28.4 µM in the experiment with U251 CNS; 3.5 µM with UACC-257 melanoma. In the experiment with UACC-62 melanoma, this compound had a TGI of 6.19 µM.

Take `CC(C)(C)S(=O)OC12CC3CC(CC(C3)C1)C2` (stereo not drawn): the TGI with HOP-62 NSCLC, in the experiment on IGROV1 ovarian, in the experiment on M14 melanoma, in the experiment on OVCAR-4 ovarian, with RXF 393 renal and in the experiment on SK-MEL-28 melanoma was over 100 µM in each case. Further, the TGI with SNB-19 CNS, in the experiment with TK-10 renal, in the experiment on U251 CNS and in the experiment with UACC-62 melanoma was over 100 µM throughout.

With `COc1ccc2c(c1)CCC(OS(=O)(=O)CC13CCC(CC1=O)C3(C)C)C2=O` (stereo not drawn), the TGI with HOP-62 NSCLC was 70.8 µM; in the experiment with HOP-92 NSCLC, 93.2 µM; in the experiment on K-562 leukemia, over 100 µM; with KM12 colon it was 41.1 µM; in the experiment on M14 melanoma it was over 100 µM; in the experiment with OVCAR-4 ovarian, over 100 µM. The TGI in the experiment with SK-MEL-28 melanoma is over 100 µM; with SNB-19 CNS, over 100 µM; in the experiment with TK-10 renal, 95.9 µM; with U251 CNS, 43.1 µM; in the experiment with UACC-257 melanoma, over 100 µM; in the experiment with UACC-62 melanoma, 34.8 µM.

With `COc1ccc(CCc2nccn2C)cc1OC`, the TGI with HOP-62 NSCLC, in the experiment on HOP-92 NSCLC, with IGROV1 ovarian, with K-562 leukemia, in the experiment with M14 melanoma and with NCI/ADR-RES ovarian was over 100 µM each time. For the same compound, the TGI in the experiment on OVCAR-4 ovarian, in the experiment with SK-MEL-28 melanoma, in the experiment with SNB-19 CNS, in the experiment with TK-10 renal, with UACC-257 melanoma and in the experiment with UACC-62 melanoma was over 100 µM in each case.

In the case of `COc1ccc(N=[N+]([O-])c2ccc(OC)cc2)cc1`, the TGI in the experiment with HOP-62 NSCLC, with HOP-92 NSCLC, in the experiment with IGROV1 ovarian, with K-562 leukemia, in the experiment on KM12 colon and in the experiment with M14 melanoma was over 100 µM in each case. The TGI with NCI/ADR-RES ovarian, in the experiment with OVCAR-4 ovarian, in the experiment with RXF 393 renal, with SK-MEL-28 melanoma, with SNB-19 CNS and in the experiment with TK-10 renal was over 100 µM throughout. In addition, the TGI in the experiment with U251 CNS, with UACC-257 melanoma and in the experiment on UACC-62 melanoma was over 100 µM in each case.

In the case of `CC(=O)OCC(Br)C1(C)CCC(C(C)(C)Br)O1` (stereo not drawn), the TGI in the experiment with HOP-62 NSCLC, with HOP-92 NSCLC, in the experiment with IGROV1 ovarian, with K-562 leukemia, with KM12 colon and in the experiment with M14 melanoma was over 100 µM throughout. For the same compound, the TGI in the experiment on NCI/ADR-RES ovarian was over 100 µM; in the experiment on OVCAR-4 ovarian it was 72 µM; with RXF 393 renal it was over 100 µM; in the experiment on SK-MEL-28 melanoma it was over 100 µM; in the experiment with SNB-19 CNS, over 100 µM; with TK-10 renal, over 100 µM. The TGI in the experiment with U251 CNS is over 100 µM; in the experiment with UACC-257 melanoma, 45.2 µM.

Consider `CC(=O)ON(C(C)=O)c1ccc(-c2nc3ccccc3s2)cc1C`, for which the TGI with HOP-62 NSCLC, in the experiment with HOP-92 NSCLC, in the experiment with IGROV1 ovarian, in the experiment on K-562 leukemia, with KM12 colon and in the experiment on M14 melanoma was over 100 µM each time. Moreover, the TGI with NCI/ADR-RES ovarian, with OVCAR-4 ovarian, in the experiment on SK-MEL-28 melanoma, in the experiment on SNB-19 CNS, in the experiment with TK-10 renal and with U251 CNS was over 100 µM in each case. For the same compound, the TGI with UACC-257 melanoma and in the experiment on UACC-62 melanoma was over 100 µM throughout.

Turning to `Cc1cc(N(CCC#N)CCC#N)ccc1C=Nc1ccc(C(=O)NN2C(=O)/C(=C/c3ccc(N(CCC#N)CCC#N)cc3)N=C2c2cc([N+](=O)[O-])ccc2Cl)cc1`, the TGI in the experiment on HOP-62 NSCLC, in the experiment with HOP-92 NSCLC, in the experiment with IGROV1 ovarian, with K-562 leukemia, in the experiment on KM12 colon and in the experiment with M14 melanoma was over 100 µM in each case. Moreover, the TGI in the experiment with OVCAR-4 ovarian, in the experiment on RXF 393 renal, in the experiment on SK-MEL-28 melanoma, in the experiment with SNB-19 CNS, in the experiment on TK-10 renal and in the experiment with U251 CNS was over 100 µM throughout. The TGI in the experiment with UACC-257 melanoma and with UACC-62 melanoma was over 100 µM in each case.

For `N#Cc1c(N2CCOCC2)[nH]c(=O)c(C(c2c(Cl)cccc2Cl)c2c(O)c(C#N)c(N3CCOCC3)[nH]c2=O)c1O`, the TGI in the experiment with HOP-62 NSCLC was 79.3 µM; in the experiment with HOP-92 NSCLC, 37.8 µM; in the experiment on IGROV1 ovarian, 35.3 µM; in the experiment with K-562 leukemia it was 23.2 µM; in the experiment on KM12 colon, 32.7 µM; in the experiment with M14 melanoma, 42.9 µM. Besides, the TGI in the experiment on NCI/ADR-RES ovarian was over 100 µM; with OVCAR-4 ovarian, 32.9 µM; with RXF 393 renal, 35.5 µM; with SK-MEL-28 melanoma, 32.9 µM; with SNB-19 CNS, 29.6 µM; in the experiment with TK-10 renal it was 32.5 µM. In addition, the TGI worked out at 30.4 µM with U251 CNS, 34 µM in the experiment on UACC-257 melanoma and 30.2 µM in the experiment on UACC-62 melanoma.

In the case of `Cc1ccc(NC(=O)C(=O)Cc2cc[n+]([O-])cc2)cc1`, the TGI with HOP-62 NSCLC, with HOP-92 NSCLC, in the experiment on IGROV1 ovarian, with K-562 leukemia, with KM12 colon and in the experiment on M14 melanoma was over 100 µM in each case. The TGI in the experiment with OVCAR-4 ovarian, in the experiment on RXF 393 renal, in the experiment with SK-MEL-28 melanoma, in the experiment on SNB-19 CNS, in the experiment with TK-10 renal and with U251 CNS was over 100 µM in each case. The TGI in the experiment with UACC-257 melanoma and in the experiment with UACC-62 melanoma was over 100 µM each time.
